# Data published in patent US20140142035A1, “METHODS AND COMPOSITIONS FOR MODULATING INSULIN REGULATION” (The Washington University, priority 2010, published 2014).
# “Also recorded” adds a separate entry of the source. Where no end group is shown, it is not given here.
# Columns and labels:
# [1] = test system: WT mice; test: Plasma insulin 5 minutes after i.p. glucose with peptides, wild type mice; type: in vivo, mouse
# Description: (§1) WT and DT mice were fasted for 16-h (Fast). As indicated, some mice were then administered an intraperitoneal injection of glucose (1 g/kg) with vehicle alone (BSA), GIP alone, Xenin-25 alone (Xen) or GIP plus Xenin-25 (G+X). […] Five minutes after injection of glucose, blood was collected and plasma prepared for insulin assays.
# (§2) WT and DT mice were fasted for 16-h (Fast). As indicated, some mice were then administered an intraperitoneal injection of glucose (1 g/kg) with vehicle alone (BSA), GIP alone, Xenin-25 alone (Xen) or GIP plus Xenin-25 (G+X). Five minutes later, blood was collected. Plasma was then prepared and assayed for insulin.
# (§3) Activation of parasympathetic neurons that innervate the pancreas can increase glucose-mediated insulin release in vivo. […] Wild type and GIP/DT mice were fasted overnight and then administered glucose in combination with GIP plus Xenin-25 by intraperitoneal injection. […] Blood was collected and plasma prepared 5 minutes after the glucose injection. […] Subsets of parasympathetic neurons that innervate the islets release vasoactive intestinal polypeptide (VIP) and pituitary adenylate cyclase activating peptide (PACAP) when activated. N-terminally truncated forms of PACAP [PACAP(6-38) or PACAP(6-27)] are competitive inhibitors of both VIP receptors (VPAC1 and VPAC2) as well as the PACAP-specific receptor Pac.
# [2] = test system: GIP/DT mice; test: Plasma insulin 5 minutes after i.p. glucose with peptides, GIP/DT mice; type: in vivo, mouse
# Description: as §1, §2, §3
# [3] = test system: perfused rat pancreas; details: supraphysiologic concentrations; cited from earlier work
# [4] = test system: primary mouse islets; test: Insulin release assay (static incubation) with primary mouse islets; type: cell-based; details: 100 nM peptide, 60 min, RIA
# Description: (§4) Primary mouse islets (panel A) or MIN6 cells (panel B) were incubated for 1-h in insulin assay buffer (KRB) containing 2.5 mM glucose. Islets or cells were then switched to KRB containing the indicated concentration of glucose with or without 100 nM GIP, GLP-1, Xenin-8, or Xenin-25. Sixty-minutes later, assay buffer was collected and the amount of insulin released determined by RIA.
# Primary mouse islets were incubated for 1-h in insulin assay buffer (KRB) containing 2.5 mM glucose. Islets were then switched to KRB containing the indicated concentration of glucose with or without 100 nM Xenin-8. Sixty-minutes later, assay buffer was collected and the amount of insulin released determined by RIA.
# (§5) Insulin release assays (static incubations) were conducted at the indicated concentration of glucose with islets isolated from WT C57BL/6J mice (Panel A; 5 islets per sample; 6 samples per condition) or Min6 cells (Panels B, C; 4 wells per condition). 100 nM GIP, GLP-1, or Xenin-25 (Xen) was added to some samples in Panels A, B. Peptides were added at the indicated concentrations in Panels C.
# Experiments were conducted to determine whether Xenin-25 acts directly on pancreatic islet beta cells (FIG. 23). Islets were isolated from wild type C57BL/6J mice and then subjected to insulin release assays (FIG. 23A) in the presence of different concentrations of glucose. […]
# [5] = test system: MIN6 cells; test: Insulin release assay with MIN6 cells; type: cell-based; details: for glucose-stimulated insulin release: MIN6 cells, 100 nM peptide, 60 min
# Description: as §4, §5
# Next, studies were performed with MIN6 cells, a well-characterized, glucose-responsive, insulin-producing cell line. First, insulin release assays were conducted in the presence of peptides. […] Second, Min6 cells were treated with GLP-1, GIP, or Xenin-25 and Western blots conducted to determine whether the Xenin-25 increased MAPK signaling. […] Finally, insulin release assays were conducted in the presence of GIP plus Xenin-25.
# [6] = test system: MAPK signaling in Min6 Cells; test: Western blot for phosphorylated (active) MAPK in Min6 cells; type: cell-based; details: 10 minutes, 7.5 mM glucose, 100 nM peptide
# [7] = test system: NONcNZO10/Ltj mice; test: Plasma insulin after i.p. glucose plus peptides in mouse model of human T2DM; type: in vivo; details: 8-week old pre-diabetic mice (FIG. 22A); 15 minutes after i.p. glucose 1 g/kg
# Description: Panel A depicts plasma insulin levels in 8-week old pre-diabetic mice.
# NONcNZO10/Ltj mice were fasted for 16-h. Blood was collected before (0) or 15 minutes after an intraperitoneal injection of glucose (1 g/kg) in the presence of vehicle alone (BSA), GIP alone, Xenin-25 alone (Xen) or GIP plus Xenin-25 (GIP+Xen). […] (FIG. 22A).
# [8] = test system: NONcNZO10/Ltj mice; test: Blood glucose after i.p. glucose plus peptides in mouse model of human T2DM; type: in vivo; details: glucose 1 g/kg i.p.
# Description: Panel A depicts blood glucose levels in 5-week old pre-diabetic mice. Panel B depicts blood glucose levels in 16-week old diabetic mice. Panel C depicts the area under the curve for data in panels A and B as well as for a third experiment using 18-week old mice. * indicates P value<0.05 versus mice of the same age receiving BSA alone.
# At the age indicated in FIG. 21, mice were fasted for 16-h. Blood glucose levels were measured before and at the indicated time after an intraperitoneal injection of glucose (1 g/kg) plus vehicle alone (BSA), GIP alone, Xenin-25 alone (Xen) or GIP plus Xenin-25 (GIP+Xen).
molecule,measurement,setting,value
CN1[C@@H]2CC[C@H]1C[C@@H](OC(=O)C(CO)c1ccccc1)C2 (stereo partly drawn) [atropine],effect on insulin release with GIP plus Xenin-25,"[1]; wild type mice, atropine i.p. 15 minutes before glucose",no statistically significant effect on insulin release
"PACAP(6-38): N-terminally truncated PACAP; competitive inhibitor of VIP receptors (VPAC1 and VPAC2) and PACAP-specific receptor (FTDSYSRYRKQMAVKKYLAAVLGKRYKQRVKNK; ends and bridges not checked; UniProt P18509 137-169, looked up, fragment)",inhibition of Xenin-25 potentiation of GIP-mediated increase in plasma insulin,"[2]; given along with peptides (FIG. 25C), mouse line not stated",did not inhibit Xenin-25 potentiation of the GIP-mediated increase in plasma insulin levels
"Xenin: xenin protein, form (xenin-25 or fragment) not specified at the place (MLTKFETKSARVKGLSFHPKRPWIL; Xenin; UniProt P53621 1-25, looked up)",glucose-stimulated insulin release,[3],increased glucose-stimulated insulin release
"glucagon like peptide 1 (HAEGTFTSDVSSYLEGQAAKEFIAWLVKGR; ends and bridges not checked; UniProt P01275 98-127, looked up) [GLP-1, incretin hormone; synthetic GLP-1(7-36) used in vivo]",glucose-stimulated insulin release,[4],insulin release is potentiated; also recorded: potentiate glucose-stimulated insulin release
same,glucose-stimulated insulin release,[5],glucose-stimulated insulin release was amplified; also recorded: potentiate glucose-stimulated insulin release
same,phosphorylation of MAPK,[6],profound increases in phosphorylation of MAPK
glucose-dependent insulinotropic polypeptide [GIP],plasma insulin levels,"[2]; GIP/DT mice, 5 minutes after i.p. glucose 1 g/kg",much smaller increase in plasma insulin levels than was observed in WT mice
same,increase in plasma insulin levels,"[1]; WT mice, 5 minutes after i.p. glucose 1 g/kg",greater than 3 fold
same,glucose-stimulated insulin release,[4],insulin release is potentiated; also recorded: potentiate glucose-stimulated insulin release
same,plasma insulin levels,[7],little effect on plasma insulin levels
same,blood glucose levels after i.p. glucose,[8]; 5-week old pre-diabetic mice,does not significantly improve blood glucose levels
same,blood glucose levels after i.p. glucose,[8]; 16-week old diabetic mice,modest improvement in blood glucose levels
same,glucose-stimulated insulin release,[5],glucose-stimulated insulin release was amplified; also recorded: potentiate glucose-stimulated insulin release
same,"insulin release, GIP with/without Xenin-25","[5]; Min6 cells, peptides at indicated concentrations (FIG. 23C)",dose-dependent increase in insulin release
same,phosphorylation of MAPK,[6],profound increases in phosphorylation of MAPK
